ChEMBL document CHEMBL1201862, “PubChem BioAssay data set” (2004)
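In this assay, cells in 96-well plates receive the compound at five concentrations for 48 hours. Endpoints are linearly interpolated between the surrounding concentrations. At the GI50, growth is halved.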 The source made the active and inactive calls. Cut-off read from the data, not from the text of the source: active = GI50 up to about 1.1 µM and inactive = higher.

Legend:
Test in all cases: inhibition of tumour cell growth, NCI panel, 48 h
[1] = system: K562
[2] = system: CCRF-CEM
[3] = system: SW-620
[4] = system: SF-295
[5] = system: HL-60
[6] = system: OVCAR-3
[7] = system: SN12C
[8] = system: NCI-H522
[9] = system: A549
[10] = system: UACC-257
[11] = system: RXF 393
[12] = system: RPMI-8226
[13] = system: OVCAR-5
[14] = system: HOP-62
[15] = system: OVCAR-8
[16] = system: COLO 205
[17] = system: HT-29
[18] = system: SR

Measured: GI50

Cc1ccc(NC(=O)CC2Sc3ccccc3NC2=O)c(C)c1 (configuration not stated)
inactive: [1] 4.01 µM | [2] 10.7 µM | [3] 11.4 µM | [4] 16.2 µM | [5] 2.73 µM | [6] 12.2 µM | [7] 38.2 µM | [8] 11.4 µM | [9] 16 µM | [10] 2.59 µM | [11] 14 µM | [12] 12.8 µM | [13] 23.3 µM | [14] 12.1 µM | [15] 18.5 µM | [16] 8.55 µM

NC(CCSCC(F)F)C(=O)O (configuration not stated)
inactive: [1] > 100 µM | [2] > 100 µM | [3] > 100 µM | [4] > 100 µM | [5] > 100 µM | [6] > 100 µM | [17] > 100 µM | [7] > 100 µM | [8] > 100 µM | [9] > 100 µM | [10] > 100 µM | [11] > 100 µM | [13] > 100 µM | [18] > 100 µM | [14] > 100 µM | [15] > 100 µM | [16] > 100 µM

O=C1CCNC/C1=C\c1ccccc1
inactive: [1] 23.1 µM | [3] 21.8 µM | [4] 26.9 µM | [5] 16.3 µM | [6] 22.9 µM | [17] 15.6 µM | [7] 34.5 µM | [8] 11.3 µM | [9] 22.2 µM | [10] 25.8 µM | [12] 24 µM | [13] 24.7 µM | [18] 25.2 µM | [14] 29.1 µM | [15] 22.2 µM | [16] 40.6 µM

COc1cc([C@@H]2c3cc4c(cc3[C@@H](NC(=O)c3cccc(F)c3)C3COC(=O)[C@@H]32)OCO4)cc(OC)c1O (some centres not stated)
inactive: [1] 1.61 µM | [6] 3.6 µM | [17] 2.05 µM | [8] 1.4 µM | [10] 7.19 µM | [11] 4.3 µM | [13] 2.21 µM | [15] 1.76 µM | [16] 3.52 µM
active: [2] 0.111 µM | [3] 0.738 µM | [4] 0.412 µM | [5] 0.111 µM | [7] 0.314 µM | [9] 0.0327 µM | [12] 0.466 µM | [14] 0.195 µM

CC1=CP(=O)(c2ccccc2)C=C(C)C1=C(Cl)Cl (configuration not stated)
inactive: [1] 3.21 µM | [2] 3.93 µM | [3] 3.82 µM | [4] 5.38 µM | [5] 2.12 µM | [6] 16 µM | [17] 3.55 µM | [7] 15.6 µM | [8] 2.6 µM | [9] 6.24 µM | [11] 16.9 µM | [12] 2.5 µM | [14] 3.26 µM | [15] 10.9 µM | [16] 4.45 µM

CCO/S(=N/S(=O)(=O)c1ccccc1)c1ccccc1[N+](=O)[O-] (configuration not stated)
inactive: [1] > 100 µM | [2] 80.2 µM | [3] > 100 µM | [4] > 100 µM | [6] > 100 µM | [17] > 100 µM | [7] > 100 µM | [8] > 100 µM | [9] > 100 µM | [10] > 100 µM | [12] > 100 µM | [13] > 100 µM | [18] > 100 µM | [14] > 100 µM | [15] > 100 µM | [16] > 100 µM

Cc1cc(C(=O)N2CCN(Cc3ccccc3)CC2)c(C)o1
inactive: [1] > 100 µM | [2] > 100 µM | [3] > 100 µM | [4] > 100 µM | [5] 25.4 µM | [6] > 100 µM | [17] > 100 µM | [7] > 100 µM | [8] > 100 µM | [9] > 100 µM | [10] > 100 µM | [12] > 100 µM | [13] > 100 µM | [18] > 100 µM | [14] > 100 µM | [15] > 100 µM

COc1cc(O)c2c(c1)O[C@@H]1OCC[C@H]21
inactive: [1] > 100 µM | [2] > 100 µM | [3] > 100 µM | [4] > 100 µM | [5] > 100 µM | [6] > 100 µM | [17] > 100 µM | [7] > 100 µM | [9] > 100 µM | [10] > 100 µM | [12] > 100 µM | [13] > 100 µM | [18] > 100 µM | [14] > 100 µM | [15] > 100 µM | [16] > 100 µM

CCOC(=O)NC(=O)c1cn(C2CCCCC2)c(=O)[nH]c1=O
inactive: [1] 4.9 µM | [2] 33.3 µM | [3] 17.4 µM | [4] 94 µM | [5] 7.53 µM | [6] > 100 µM | [17] 6.67 µM | [7] > 100 µM | [8] > 100 µM | [9] 58.7 µM | [10] > 100 µM | [12] 63.5 µM | [13] > 100 µM | [14] 38 µM | [15] > 100 µM | [16] 98.9 µM

N#CCc1nc2c(s1)C(=O)c1ccccc1C2=O
inactive: [1] 11.8 µM | [3] 19.1 µM | [4] 19.4 µM | [6] 15.8 µM | [17] 22.8 µM | [7] 18.8 µM | [8] 14.7 µM | [10] 15.2 µM | [11] 30.6 µM | [12] 5.37 µM | [13] 22.6 µM | [14] 15 µM | [15] 10.8 µM | [16] 18.7 µM

CC(C)(C)C(=O)C(c1ccc(-c2cscn2)cc1)c1ccc(-c2cscn2)cc1
inactive: [1] > 92.9 µM | [2] > 100 µM | [3] > 100 µM | [4] 18.1 µM | [5] > 100 µM | [6] 28.1 µM | [17] 72.3 µM | [7] 34.7 µM | [8] 22.8 µM | [9] 29.6 µM | [10] 76 µM | [11] 18.8 µM | [12] 32.1 µM | [13] > 100 µM | [14] 18.5 µM | [15] 16.7 µM | [16] > 89.7 µM

NC(=S)NNc1c([N+](=O)[O-])cnn(-c2ccccc2)c1=O
inactive: [1] 4.36 µM | [3] 13.1 µM | [4] 15.1 µM | [5] 4.62 µM | [6] 17.6 µM | [17] 18 µM | [7] 17.1 µM | [8] 18.7 µM | [9] 23 µM | [10] 22.9 µM | [11] 18.5 µM | [12] 20.7 µM | [13] 18.4 µM | [18] 4.05 µM | [14] 19.2 µM | [15] 14.5 µM | [16] 13.1 µM

COc1cc2c[n+]3ccc4cc(OC)c(OC)cc4c3cc2cc1O
inactive: [1] > 100 µM | [2] > 100 µM | [3] > 100 µM | [4] > 100 µM | [5] > 100 µM | [17] > 100 µM | [7] > 100 µM | [8] > 100 µM | [9] > 100 µM | [10] > 100 µM | [11] > 100 µM | [12] > 100 µM | [13] > 100 µM | [18] > 100 µM | [15] > 100 µM

CCOC(=O)NC(=O)c1cn(CCCOC(=O)NCCCCCCNC(=O)OCCCn2c(=O)c(C(=O)NC(=O)OCC)cn(C)c2=O)c(=O)n(C)c1=O
inactive: [1] > 100 µM | [2] > 100 µM | [3] > 100 µM | [5] > 100 µM | [6] > 100 µM | [17] > 100 µM | [7] > 100 µM | [8] > 100 µM | [9] > 100 µM | [10] > 100 µM | [11] 24.8 µM | [12] > 100 µM | [13] > 100 µM | [15] > 100 µM | [16] > 100 µM

c1c[nH]c(Cc2nc(Cc3c[nH]cn3)c[nH]2)n1
inactive: [1] 3.37 µM | [2] 5.06 µM | [3] 6.73 µM | [4] 35.6 µM | [5] 3.66 µM | [6] 55.8 µM | [17] 4.12 µM | [7] 29.6 µM | [8] 12.2 µM | [9] 3.96 µM | [12] 10.1 µM | [13] 1.53 µM | [14] 17.5 µM | [15] 33.5 µM | [16] 5.37 µM

Nc1ncnc2c1ncn2C1(CO)OC(CO)C(O)C1O (configuration not stated)
inactive: [2] > 100 µM | [3] > 100 µM | [4] > 100 µM | [5] > 100 µM | [17] > 100 µM | [7] > 100 µM | [8] > 100 µM | [9] > 100 µM | [10] > 100 µM | [11] > 100 µM | [12] > 100 µM | [13] > 100 µM | [18] > 100 µM | [14] > 100 µM | [16] > 100 µM

Clc1cc2nc[nH]c2cc1Cl
inactive: [1] > 100 µM | [2] > 100 µM | [3] > 100 µM | [4] > 100 µM | [5] > 100 µM | [6] > 100 µM | [17] > 100 µM | [7] > 100 µM | [9] > 100 µM | [12] > 100 µM | [13] > 100 µM | [14] 93.8 µM | [15] > 100 µM | [16] > 100 µM
